The values below come from patent EP2678315B1, “(Pyridin-4-yl)benzylamides as allosteric modulators of alpha 7 nAChR” (Janssen Pharmaceutica, N.V., priority 2011, dated 2012).

Several values for one entry are separate records, joined by “and”; a condition that tells them apart may be missing. Equal entries are not always repeated. Where two headings read alike, the source gives them in different places.

The test deals with T1, human alpha 7-wt nAChR (Homo sapiens, UniProt P36544).
T1 construct: expressed in transfected cells
T1 sequence (P36544 23-502): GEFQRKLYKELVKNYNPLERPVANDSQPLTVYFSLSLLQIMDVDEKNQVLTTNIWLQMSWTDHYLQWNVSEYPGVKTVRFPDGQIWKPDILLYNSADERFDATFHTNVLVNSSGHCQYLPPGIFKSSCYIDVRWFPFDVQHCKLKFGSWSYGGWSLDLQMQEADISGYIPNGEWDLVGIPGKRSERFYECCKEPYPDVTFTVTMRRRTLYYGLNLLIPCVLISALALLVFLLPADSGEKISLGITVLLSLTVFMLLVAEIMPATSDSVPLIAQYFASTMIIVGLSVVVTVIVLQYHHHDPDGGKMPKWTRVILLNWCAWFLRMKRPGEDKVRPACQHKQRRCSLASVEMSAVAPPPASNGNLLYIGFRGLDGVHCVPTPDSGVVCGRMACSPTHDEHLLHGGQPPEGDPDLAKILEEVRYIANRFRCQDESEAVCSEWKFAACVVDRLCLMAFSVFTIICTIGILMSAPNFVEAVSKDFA
Put plainly: Ca2+ flux imaging (FDSS) (protocol B). The test is classed as cell-based. Particulars: for EC50: read-out: pEC50 (converted); for Emax: read-out: % Efficacy. How it is done:
Example D.1 : Ca^2+ flux imaging (FDSS) (protocol B)
• a) Assay buffer Hanks buffered saline solution (HBSS, Invitrogen, Belgium), supplemented with 10 mM HEPES (Invitrogen, Belgium), CaCl2 to a final concentration of 5 mM, 0.1 % Bovine serum albumin (Sigma-Aldrich NV, Belgium). • b) Calcium-sensitive dye - Fluo-4AM Fluo-4AM (Molecular Probes, USA) was dissolved in DMSO containing 10% Pluronic acid (Molecular Probes, USA) to give a stock solution which was diluted in assay buffer supplemented with 5 mM probenicid (Sigma, Aldrich NV, Belgium) to give a final concentration of 2 µM • c) 384-well plates Black-sided, transparent bottomed 384 well plates coated with poly-D-lysine, PDL pre-coated (Coming, Incorporated, USA) • d) Calcium flux measurement A Functional drug screening system (FDSS, Hamamatsu) was used to measure intracellular free-calcium flux signals.
Monolayers of human alpha 7-wt nAChR-expressing cells were grown in black-sided, transparent bottomed 384 well plates coated with PDL for 24 hours prior to loading with a fluorescent calcium indicator, fluo-4AM for up to 120 minutes.
PAM activity was detected in real time by applying the compounds to be tested to the loaded cells along with an alpha 7 nicotinic receptor agonist during constant monitoring of cellular fluorescence in a FDSS. Compounds giving peak fluorescent responses greater than the response due to agonist alone, were consideted to be alpha 7 nAChR PAMs. The alpha 7 nicotinic receptor agonist was choline, applied at a sub-maximal concentration of 100 µM. In a further setting of the present invention the compounds were applied prior to the alpha 7 nicotinic receptor agonist, in a particular 10 minutes prior to the agonist.
A control response to choline was calculated on each plate from the difference in peak in fluorescence in wells receiving either choline or assay buffer alone. Compounds of the present invention were tested at a concentration range from 0.01 µM to 30 µM. Compounds were considered to have an interesting activity when they potentiated the choline signal at least with 200 % when tested at a concentration of 30 µM (the efficacy of 100 µM choline was defined as 100% in the absence of a PAM). An EC50 (or pEC50) was determined as a concentration relating to half the maximal effect, when a clear sigmoidal curve with top plateau was obtained.
A general note: A change in cytosolic calcium serves as a functional read-out for many receptors and channels.

On to `Cc1cc(-c2ccc(N3C[C@@H](C)O[C@@H](C)C3)c(F)c2CNC(=O)C2CCCCC2)cc(C)n1` [Compound 46], for which the EC50 (Ca2+ assay as described in D.1) was 91.2 nM.

Consider `Cc1cc(-c2c(F)cc(N3CCCC(C(F)(F)F)C3)cc2CNC(=O)C(C)C)cc(C)n1` (centres unmarked) [Compound 96], for which, for the setting “Ca2+ assay as described in D.1”, the Emax was determined as 148%. In the case of `Cc1cc(-c2ccc(N3C[C@@H](C)O[C@@H](C)C3)cc2CNC(=O)C(C)C)ccn1` [Compound 9], the EC50 (Ca2+ assay as described in D.1) was 240 nM. `Cc1cc(-c2ccc(N3C[C@H](C(F)(F)F)C[C@H](C(F)(F)F)C3)cc2CNC(=O)c2ccc(F)cc2C)cc(C)n1` [Compound 20]: the Emax worked out at 466%. Also, the EC50 (Ca2+ assay as described in D.1) is 11 nM. With `Cc1cc(-c2ccc(N3C[C@@H](C)O[C@@H](C)C3)c(F)c2CNC(=O)C(C)C2CC2)cc(C)n1` (mixture of isomers) [Compound 50], the EC50 (Ca2+ assay as described in D.1) is 479 nM. The same measure, in the same setting: then `Cc1cc(-c2ccc(N3CCO[C@H](C(F)(F)F)C3)c(F)c2CNC(=O)CC2CC2)cc(C)n1` [Compound 64], with 309 nM. `Cc1cc(-c2ccc(N3CCOCC3)cc2CNC(=O)CC(F)(F)F)cc(C)n1` [Compound 28]: the Emax (Ca2+ assay as described in D.1) was 111%. As for `Cc1cc(-c2c(F)cc(N3C[C@@H](C)O[C@@H](C)C3)cc2CNC(=O)CC2CC2)cc(C)n1` [Compound 74], the Emax is 508%. The EC50 (Ca2+ assay as described in D.1) was 11.2 nM.

Regarding `Cc1cc(-c2ccc(N3C[C@@H](C)O[C@@H](C)C3)c(F)c2CNC(=O)CC(C)(C)C)cc(C)n1` [Compound 48], the EC50 (Ca2+ assay as described in D.1) was 24 nM. For `Cc1cc(-c2c(F)cc(N3C[C@@H](C)O[C@@H](C)C3)cc2CNC(=O)C2CCC2)cc(C)n1` [Compound 85], the Emax worked out at 954%. The EC50 (Ca2+ assay as described in D.1) was 6.17 nM. In the case of `Cc1cc(-c2ccc(N3CCCC(C(F)(F)F)C3)cc2CNC(=O)C(C)C)cc(C)n1` (centres unmarked) [Compound 36], the Emax (Ca2+ assay as described in D.1) turned out to be 131%. For the compound `Cc1cc(-c2c(F)cc(N3C[C@@H](C)O[C@@H](C)C3)cc2CNC(=O)CCC(F)(F)F)cc(C)n1` [Compound 81], the EC50 (Ca2+ assay as described in D.1) was 5.37 nM.

For the compound `Cc1cc(-c2ccc(N3CCO[C@H](C(F)(F)F)C3)c(F)c2CNC(=O)CC2CCC2)cc(C)n1` [Compound 70], the EC50 (Ca2+ assay as described in D.1) is 115 nM.

Consider `Cc1cc(-c2ccc(N3C[C@@H](C)O[C@@H](C)C3)c(F)c2CNC(=O)CC2CCC2)cc(C)n1` [Compound 45], for which the EC50 (Ca2+ assay as described in D.1) is 138 nM. For the compound `Cc1nocc1C(=O)NCc1cc(N2CCOCC2)ccc1-c1ccncc1` [Compound 138], for the setting “Ca2+ assay as described in D.1”, the Emax was 386%. For the compound `Cc1cc(-c2ccc(C3C[C@@H](C)O[C@@H](C)C3)c(F)c2CNC(=O)CC2CCC2)cc(C)n1` (relative stereo) [Compound 60], the EC50 (Ca2+ assay as described in D.1) is 178 nM. For the compound `Cc1cc(-c2ccc(N3CCO[C@@H](C(F)(F)F)C3)c(F)c2CNC(=O)C2CC2)cc(C)n1` [Compound 73], the Emax came out at 878%. Also, the EC50 (Ca2+ assay as described in D.1) was 741 nM. With `Cc1cc(-c2ccc(N3C[C@@H](C)O[C@@H](C)C3)c(F)c2CNC(=O)CC(C)C)cc(C)n1` [Compound 43], the EC50 (Ca2+ assay as described in D.1) was 120 nM. As for `Cc1cc(-c2c(F)cc(N3C[C@@H](C)O[C@@H](C)C3)cc2CNC(=O)C(C)C)cc(C)n1` [Compound 78], the Emax was determined as 707%. Moreover, under “Ca2+ assay as described in D.1”, the EC50 is 21.9 nM.

Regarding `Cc1cc(-c2ccc(N3C[C@@H](C)O[C@@H](C)C3)c(F)c2CNC(=O)c2conc2C)cc(C)n1` [Compound 39], under “Ca2+ assay as described in D.1”, the EC50 is 832 nM.

Regarding `Cc1cc(-c2ccc(N3CCO[C@@H](C(F)(F)F)C3)c(F)c2CNC(=O)c2cc(C)on2)cc(C)n1` [Compound 57], the EC50 (Ca2+ assay as described in D.1) is 234 nM.

On to `Cc1cc(-c2ccc(N3C[C@@H](C)O[C@@H](C)C3)cc2CNC(=O)C(C)C2CC2)cc(C)n1` (relative stereo) [Compound 8], for which the Emax worked out at 353%. In addition, under “Ca2+ assay as described in D.1”, the EC50 is 24 nM. Take `O=C(CC1CC1)NCc1cc(N2CCOCC2)ccc1-c1ccncc1` [Compound 139]: the Emax was found to be 367%. In addition, under “Ca2+ assay as described in D.1”, the EC50 is 3160 nM. On to `Cc1cc(-c2c(F)cc(N3C[C@@H](C)O[C@@H](C)C3)cc2CNC(=O)c2cc(C)on2)cc(C)n1` [Compound 75], for which the EC50 (Ca2+ assay as described in D.1) is 209 nM. With `Cc1cc(-c2ccc(N3CC4CCC(C3)O4)cc2CNC(=O)C(C)C)cc(C)n1` [Compound 129], the Emax turned out to be 296%. Also, where the note is “Ca2+ assay as described in D.1”, the EC50 was 724 nM. With `Cc1cc(-c2ccc(N3C[C@@H](C)O[C@@H](C)C3)c(F)c2CNC(=O)c2ccc(F)cc2C)cc(C)n1` [Compound 40], the EC50 (Ca2+ assay as described in D.1) was 41.7 nM. For `Cc1cc(-c2ccc(N3CCOCC3)cc2CNC(=O)C(C)C)ccn1` [Compound 140], the “% Efficacy” value (Ca2+ assay as described in D.1) is 495.5% and 591.6%. For `Cc1cc(-c2c(F)cc(N3C[C@@H](C)O[C@@H](C)C3)c(F)c2CNC(=O)C2CC2)cc(C)n1` [Compound 122], the EC50 (Ca2+ assay as described in D.1) is 589 nM. Take `Cc1cc(-c2ccc(N3C[C@@H](C)O[C@@H](C)C3)cc2CNC(=O)C2CC2)ccn1` [Compound 14]: the EC50 (Ca2+ assay as described in D.1) was 589 nM. In the case of `Cc1cc(-c2c(F)cc(N3C[C@@H](C)O[C@@H](C)C3)cc2CNC(=O)CC(C)(C)C)cc(C)n1` [Compound 84], the Emax was 686%. The EC50 (Ca2+ assay as described in D.1) was 9.33 nM. In the case of `Cc1cc(-c2ccc(C3C[C@@H](C)O[C@@H](C)C3)c(F)c2CNC(=O)c2conc2C)cc(C)n1` (relative stereo) [Compound 63], the EC50 (Ca2+ assay as described in D.1) is 1070 nM. As for `Cc1cc(-c2ccc(C3C[C@@H](C)O[C@@H](C)C3)c(F)c2CNC(=O)c2cc(C)on2)cc(C)n1` (relative stereo) [Compound 62], under “Ca2+ assay as described in D.1”, the EC50 was 708 nM. Turning to `Cc1cc(-c2ccc(N3CCOCC3)cc2CNC(=O)c2conc2C)cc(C)n1` [Compound 26], the Emax stood at 202%. Also, under “Ca2+ assay as described in D.1”, the EC50 is 457 nM. For `Cc1cc(-c2ccc(N3CCO[C@@H](C(F)(F)F)C3)c(F)c2CNC(=O)c2conc2C)cc(C)n1` [Compound 58], the EC50 (Ca2+ assay as described in D.1) was 269 nM.

As to `Cc1cc(-c2ccc(N3C[C@@H](C)O[C@@H](C)C3)c(F)c2CNC(=O)c2cc(C)on2)cc(C)n1` [Compound 38], for the setting “Ca2+ assay as described in D.1”, the EC50 was 977 nM. Consider `Cc1cc(-c2ccc(N3CCOCC3)cc2CNC(=O)CC2CC2)cc(C)n1` [Compound 24], for which the Emax is 466%. For the same compound, the EC50 (Ca2+ assay as described in D.1) is 1780 nM.

In the case of `Cc1cc(-c2c(F)cc(N3C[C@@H](C)O[C@@H](C)C3)cc2CNC(=O)CC2CC2)ccn1` [Compound 87], the EC50 (Ca2+ assay as described in D.1) was 79.4 nM.

On to `Cc1cc(-c2c(F)cc(N3C[C@@H](C)O[C@@H](C)C3)cc2CNC(=O)C2CC2)cc(C)n1` [Compound 79], for which the Emax was 381%. Moreover, the EC50 (Ca2+ assay as described in D.1) was 17.4 nM.

In the case of `Cc1cc(-c2ccc(C3C[C@@H](C)O[C@@H](C)C3)c(F)c2CNC(=O)C(C)C)cc(C)n1` (relative stereo) [Compound 61], the EC50 (Ca2+ assay as described in D.1) is 871 nM. The same measure, in the same setting: to `Cc1cc(-c2ccc(N3CCO[C@H](C(F)(F)F)C3)c(F)c2CNC(=O)CC(C)C)cc(C)n1` [Compound 68] belongs 132 nM.

Regarding `Cc1cc(-c2ccc(N3C[C@@H](C)O[C@@H](C)C3)cc2CNC(=O)CC(F)(F)F)cc(C)n1` [Compound 7], where the note is “Ca2+ assay as described in D.1”, the Emax stood at 287%.

Turning to `Cc1cc(-c2ccc(N3C[C@@H](C)O[C@@H](C)C3)cc2CNC(=O)c2conc2C)ccn1` [Compound 12], the Emax was 562%. Besides, the EC50 (Ca2+ assay as described in D.1) is 166 nM. Taken in the same sequence, the figures for `Cc1cc(-c2ccc(N3CCCC(C(F)(F)F)C3)cc2CNC(=O)c2ccc(F)cc2C)cc(C)n1` (centres unmarked) [Compound 33] were 278% and 245 nM. Taken in the same sequence, the figures for `Cc1cc(-c2ccc(N3CCOCC3)cc2CNC(=O)c2conc2C)ccn1` [Compound 143] were 130% and 8710 nM. On to `Cc1cc(-c2ccc(N3CCO[C@@H](C(F)(F)F)C3)c(F)c2CNC(=O)CC2CCC2)cc(C)n1` [Compound 71], for which the EC50 (Ca2+ assay as described in D.1) is 32.4 nM. The same measure, in the same setting: to `Cc1cc(-c2ccc(N3C[C@@H](C)O[C@@H](C)C3)c(F)c2CNC(=O)c2cnc(Cl)cc2Cl)cc(C)n1` [Compound 51] belongs 148 nM; to `Cc1cc(-c2ccc(N3C[C@@H](C)O[C@@H](C)C3)c(CNC(=O)c3ccc(F)cc3C)c2)cc(C)n1` [Compound 135], 14.1 nM. Take `Cc1cc(-c2ccc(N3C[C@H](C)C[C@H](C)C3)cc2CNC(=O)c2cc(C)on2)cc(C)n1` [Compound 18]: the Emax is 136%. Also, the EC50 (Ca2+ assay as described in D.1) was 288 nM. As to `Cc1cc(-c2ccc(N3C[C@@H](C)O[C@@H](C)C3)cc2CNC(=O)c2ccc(F)cc2C)cc(C)n1` [Compound 5], the EC50 (Ca2+ assay as described in D.1) was 9.33 nM. On to `Cc1cc(-c2ccc(N3CCOCC3)cc2CNC(=O)c2ccc(F)cc2C)ccn1` [Compound 31], for which the Emax amounted to 576%. In addition, the EC50 (Ca2+ assay as described in D.1) is 479 nM. For the compound `Cc1cc(-c2ccc(N3C[C@@H](C)O[C@@H](C)C3)c(F)c2CNC(=O)c2cccc(Cl)c2F)cc(C)n1` [Compound 52], the EC50 (Ca2+ assay as described in D.1) was 479 nM.
